Values of other authors in patent US20050003017A1, “Hypotensive and hypertensive properties of renomedullar extracts” (priority 2000, published 2005).

Details: low stability; Svensson et al.

half life: about 30 seconds
Compound: CCCCC[C@H](O)/C=C/[C@H]1O[C@H]2C[C@H](O2)[C@@H]1C/C=C\CCCC(=O)O [thromboxan A2]
